Entries after “also recorded” stand apart in the source; their conditions may differ. Where two headings read alike, the source gives them in different places.
Tests used:
[1] = Solubility of gelatin capsule shells filled with PEG 4000 and free radical scavenger after storage (Example 3); assay type: physicochemical; conditions: 5 parts scavenger + 95 parts PEG 4000 packed into capsule, 60°C for a week, content removed; 2nd solution of JP12 (37 °C)
Protocol: After storage in a tightly closed glass bottle at 60°C for a week, the capsule content was removed and solubility of each capsule shell was examined in the same manner as in Example 1.

[2] = capsule shells stored without contact over 95 parts PEG 6000 + 5 parts scavenger, 60°C for a week, 2nd solution of JP12 (37 °C), observed after 5 to 6 minutes

For O=P(=O)O [metaphosphoric acid], which Solubility [1] is on record?
Its Solubility is “soluble rapidly”.

For Cc1cc2nc3c(=O)[nH]c(=O)nc-3n(C[C@H](O)[C@H](O)[C@H](O)CO)c2cc1C [riboflavin], which Solubility [2] is on record?
Its Solubility is “completely prevented the decrease of the solubility; also recorded: soluble rapidly”.

With polyphosphoric acid as the compound, how does the Solubility [1] read?
The Solubility was “soluble rapidly”.

Which Solubility [1] does the source give for N[C@@H](CCC(=O)N[C@@H](CS)C(=O)NCC(=O)O)C(=O)O [glutathione] here?
The Solubility was “soluble rapidly”.

With Cc1c(C)c2c(c(C)c1O)CC[C@@](C)(CCC[C@H](C)CCC[C@H](C)CCCC(C)C)O2 [d-α -tocopherol] as the compound, how does the Solubility [1] read?
Its Solubility is “soluble rapidly”.

What about the Solubility [2] of the same compound?
The Solubility was “soluble rapidly”.

And the Solubility ([2]; listed as tocopherol)?
The Solubility was “completely prevented the decrease of the solubility”.

— EP0695544B1, “Hard gelatin capsules resistant to denaturation and the production thereof” (SHIONOGI & CO., LTD., priority 1994, dated 1996)
